The text below walks through data of patent US20220008500A1, “COMPOSITIONS AND METHODS FOR TREATING HEART FAILURE” (The George Washington University, priority 2017, published 2022).

The subject of assay [1] is excised Langendorff perfused hearts. Description: Isoproterenol dose response in excised Langendorff perfused hearts (β-adrenergic stimulation). Set-up: species or system Sprague-Dawley rats. The protocol:
At nine weeks of age rats were anesthetized with an IP injection of 0.2 mL Telazol and subject to isoflurane inhalation. Following cessation of pain reflexes, hearts were rapidly excised (n=26) and Langendorff perfused via the aorta at constant pressure (65 mmHg) and temperature (37° C.) with a Krebs-Henseleit solution containing (in mM) 115 NaCl, 3.3 KCl, 2.0 CaCl2, 1.4 MgSO4, 25.0 NaHCO3, 1.0 KH2PO4, 5.0 glucose, and 1.0 lactate. Perfusate was oxygenated with 95% 02-5% CO2. After a stabilization period of 10 minutes, a size 5 balloon (Harvard Apparatus) was inserted into the LV to measure isovolumic LV developed pressure (LVDP). Diastolic pressure was set to 10 mmHg and LVDP was computed as the difference between systolic and diastolic pressures. HR, LVDP, and coronary flow rate (CFR) were measured for at least 15 minutes during sinus rhythm. An isoproterenol (16504, Sigma Aldrich) dose response protocol was then administered using concentrations of 0.01, 0.1, 1, 10, 100, 1000 nM, and HR, LVDP, and CFR were measured at each concentration once function stabilized. After each study, rate pressure product (RPP), an indirect measure of LV work, was calculated as the product of HR and LVDP. Contractility and relaxation were measured as the maximum and minimum values of the first derivative of the LVP waveform, respectively, to assess inotropy and lusitropy.
Measurements in each group were compared using analysis of variance with Tukey post-hoc comparisons (Minitab 17 Statistical Software) to identify significant differences between groups. Myocyte area measurements were analyzed using fully nested ANOVA to account for both number of cells and number of animals. The isoproterenol dose response data was analyzed using a general linear model (GLM) to evaluate the group effect and the isoproterenol dose effect. Tukey post-hoc tests identified pairwise changes between groups at each isoproterenol concentration. Differences were considered significant if p<0.05.

Assay [2] deals with myocardial ischemia-reperfusion. The note with it: intra-cerebroventricular administration, rats with daily restraint stress; cited from earlier work.
Where [3] appears, read: Control hearts, isoproterenol 1000 nM.

On to `CC(C)NCC(O)c1ccc(O)c(O)c1` (stereo not drawn) [isoproterenol], for which, in assay [1] (setting [3]), the “Contractility at the highest isoproterenol concentration” value is on record as 7,164±788 mmHg/s, the “RPP at the highest isoproterenol concentration” value is given as 52,741±14,328 mmHg*bpm and the “Relaxation at the highest isoproterenol concentration” value was −5,402±484 mmHg/s. For the same compound, the “CFR at the highest isoproterenol concentration” value in assay [1] (Control hearts, isoproterenol 1000 nM, baseline 13.3±2.4 mL/min) came to 25.3 ± 3.7 mL/min. In assay [1] (untreated TAC hearts), the “CFR, average for all isoproterenol concentrations” value was 8.4 ± 0.8 mL/min; the “Maximum contractility rate in the isoproterenol protocol” value is listed as 2,322±364 mmHg/s; the “Minimum relaxation rate in the isoproterenol protocol” value is −2,023±361 mmHg/s. In addition, in assay [1] (untreated TAC hearts, isoproterenol 1000 nM), the “RPP at the highest isoproterenol concentration” value is reported as 21,787±3998 mmHg*bpm.
For the compound `CC[C@H](C)[C@@H]1NC(=O)[C@H](Cc2ccc(O)cc2)NC(=O)[C@@H](N)CSSC[C@@H](C(=O)N2CCC[C@H]2C(=O)N[C@@H](CC(C)C)C(=O)NCC(N)=O)NC(=O)[C@H](CC(N)=O)NC(=O)[C@H](CCC(N)=O)NC1=O` [oxytocin], in assay [2], the “Cardiac injury following ischemia reperfusion” value is “reduced the cardiac injury”.
